Reference: paper PMC10137179, “Assessment of Covalently Binding Warhead Compounds in the Validation of the Cytomegalovirus Nuclear Egress Complex as an Antiviral Target” (Cells, 2023)

Legend:
[1] = molecular target: T1, pUL50-HA + pUL53-Flag (Human cytomegalovirus, UniProt P16791); assay: Coimmunoprecipitation (CoIP) of pUL50-HA and pUL53-Flag from cotransfected 293T cells; assay type: binding, HCMV; settings: serial concentrations, mostly at 20–40 µM; added 24 h p.t. or after cell lysis
T1 construct: expressed in transfected cells; host or cells: 293T
T1 sequence (P16791 whole entry): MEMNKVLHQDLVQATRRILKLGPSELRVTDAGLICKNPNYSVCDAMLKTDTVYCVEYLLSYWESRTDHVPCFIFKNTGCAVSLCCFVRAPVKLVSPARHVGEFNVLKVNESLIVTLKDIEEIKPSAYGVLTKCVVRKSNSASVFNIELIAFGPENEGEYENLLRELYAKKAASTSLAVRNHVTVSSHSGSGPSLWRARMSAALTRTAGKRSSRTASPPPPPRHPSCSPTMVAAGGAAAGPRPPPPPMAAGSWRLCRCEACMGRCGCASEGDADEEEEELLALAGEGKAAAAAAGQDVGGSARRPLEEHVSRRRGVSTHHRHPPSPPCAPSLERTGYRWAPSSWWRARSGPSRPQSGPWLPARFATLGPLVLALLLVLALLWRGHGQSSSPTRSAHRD
Procedure: For CoIP analysis, 293T cells were seeded in 10 cm dishes with a density of 5 × 10^6 cells and used for transient transfection with expression plasmids. Then, 2–3 days post-transfection (d p.t.), CoIP was performed as described previously, using mAb-HA (H9658, Sigma-Aldrich, St. Louis, MO, USA). In brief, cells were lysed in 500 μL CoIP buffer (50 mM Tris/HCl (pH 8.0), 150 mM NaCl, 5 mM EDTA, 0.5% NP-40, 1 mM PMSF, 2 μg/mL aprotinin, 2 μg/mL leupeptin and 2 μg/mL pepstatin). Subsequently, total lysates were incubated with antibody-coated (2 μL of tag-specific or control antibodies) Dynabeads® Protein A (30 μL per sample; Life Technologies, Carlsbad, CA, USA) for 2 h at 4 °C under rotation. The precipitates were washed five times with 1 mL of CoIP buffer. CoIP samples and lysate controls were taken prior to the addition of the CoIP antibody. SDS-PAGE and standard Western blot analysis of cell lysates was performed using equal protein amounts as described previously. […]
In both cases, total lysates were prepared at 48 h p.t., and the CoIP analysis was performed under continued drug treatment (Figure S3). The protein applied as the basis for IP (using tag-specific mAb-HA) was pUL50-HA, and pUL53-Flag was detected as the CoIP partner. […]

[2] = test system: HCMV AD169-GFP; assay: microbe, parasite or virus in culture; assay type: cell-based, human cytomegalovirus (HCMV); settings: Human betaherpesvirus 5, AD169, 168 h, clinically relevant warheads, 0.1 µM to 50 µM, AD169-GFP-infected HFFs, 7 d p.i.
Procedure: Cytotoxicity of the analyzed compounds was determined by the Neutral Red dye uptake assay. A total of 1.35 × 10^5 HFFs per well were seeded in 96-well plates 1 d prior to analysis, cultivated overnight until cells were confluent and then incubated with compounds for 7 days. The assay was performed as described previously using 40 μg/mL Neutral Red (Sigma Aldrich). The quantity of dye incorporation was determined using the Victor X4 microplate reader (PerkinElmer, Waltham, MA, USA) by fluorescence measurement at 560/630 nm for excitation/emission, respectively. To assess antiviral activity of compounds, HFFs seeded in 96-well plates (1.35 × 10^5 HFFs per well) were infected with HCMV AD169-GFP or TB40-IE2-YFP to reach 25–50% infected cells at 7 days post-infection (d p.i.). After incubation with the infectious inoculum for 1.5 h at 37 °C, compounds were added in serial dilutions. At 7 d p.i., cells were fixed for 10 min at room temperature using 10% formalin. Finally, cells were washed once with PBS followed by automated fluorescence quantitation.
Seeking for a novel group of potential antiviral agents, small molecules with covalent protein-binding activity were investigated. These small molecules, originally developed as kinase inhibitors, carry a so-called warhead moiety as an important functional group, such as the prototype afatinib (Figure 1A, red circle). In this study, a series of newly generated warhead compounds (most of which are the property of B.K./Lead Discovery Center, Dortmund, Germany) were used for an evaluation of putative antiviral and core NEC-inhibitory properties. In a first step, the antiviral activity of warheads was analyzed against HCMV TB40-IE2-YFP (Figure 1B) and AD169-GFP (Figure 1C). To this end, HFFs were infected with either of the two viral strains before the GFP or YFP reporter signals were measured at 7 d p.i. (in parallel, putative compound cytotoxicity was determined by Neutral Red assay). The HCMVs AD169-GFP and TB40-IE2-YFP, based on BAC-derived recombinants of the laboratory strains AD169 and TB40, respectively, were both propagated on HFFs, and the produced stocks were then used as two reporter viruses for the assessement of antiviral drug activity. While strain AD169 is mainly restricted in its tropism to fibroblasts, TB40 tropism can be extended to fibroblasts and epithelial and endothelial cells. Here, the use of two strains was intended to illustrate the assumption that antiviral activity of these warhead compounds may be directed to conserved viral target proteins, thus pointing out a minor impact of strains.
(A) Chemical structure of a clinically approved prototype of covalently binding warhead inhibitors, […], afatinib/Gilotrif®. The red circle identifies a functionally active α-, β-unsaturated carbonyl group. (B) At 7 d p.i., compounds were analyzed for their cytotoxicity (orange) and antiviral activity (blue) during HCMV infection, using TB40-IE2-YFP as a reporter virus. Cell viability was assessed through Neutral Red staining of uninfected cells. Measurements were performed in quadruplicate (YFP fluorometry) or triplicate (Neutral Red assay), and standard deviations of mean values are given; EC50, CC50 and SI values are indicated accordingly. (C) In a parallel series of analyses, HCMV AD169-GFP was used as another reporter virus representing a second viral strain. […] HCMV AD169-GFP-infected HFFs were treated with 0.1 µM to 50 µM of the compounds (in parallel Neutral Red assay, 0.1 µM to 100 µM), before the signal assessments were performed at 7 d p.i.

[3] = molecular target: T2, pUL50–pUL53 interaction (LgBiT::UL53(1–87)-Flag + SmBiT::UL50-HA) (Human cytomegalovirus, UniProt P16791); assay type: cell-based; settings: 293T cells, 5×, 1× or 0.2× anti-HCMV EC50 levels, truncated LgBiT::UL53(1–87)-Flag
T2 construct: expressed in transfected cells; host or cells: 293T
T2 sequence (P16791 whole entry, the tested form may be a part): as the sequence (P16791 whole entry) above

C=CC(=O)N1CCC[C@@H](n2nc(-c3ccc(Oc4ccccc4)cc3)c3c(N)ncnc32)C1 [ibrutinib]
coimmunoprecipitated pUL53-Flag (in words) [1]: trend of a reduction in coimmunoprecipitated pUL53-Flag | EC50 [2]: 16 ± 6 µM | inhibitory effect on NanoBiT interaction signal (in words) [3]: most prominent, dose-dependent reduction in the measured interaction signal
